Key:
Format in all cases: ADME
[1] = (§1) The drug is tested on Streptococcus sanguinis strain: DSM20567 for biotransformation under microaerobic condition. The drug concentrations were measured over 6 timepoints collected between 0 and 12 hours of incubation by liquid-chromatography-coupled mass spectrometry (LC–MS); parameters: dose 5 uM, timepoint 0, 1.5, 3, 6, 9, 12 hours; conditions: 5 µM
[2] = as §1, with “the gut metagenome community of T-02 with ENA study accession number: PRJEB31790” for “Streptococcus sanguinis strain: DSM20567”, “7” for “6”; parameters: dose 5 uM, timepoint 0, 0.75, 1.5, 3, 6, 9, 12 hours; conditions: 5 µM
[3] = (§2) The drug is tested on Odoribacter splanchnicus strain: DSM20712 for biotransformation under anaerobic condition. The drug concentrations were measured over 6 timepoints collected between 0 and 12 hours of incubation by liquid-chromatography-coupled mass spectrometry (LC–MS); parameters: dose 5 uM, timepoint 0, 1.5, 3, 6, 9, 12 hours; conditions: 5 µM
[4] = The drug is tested on Bacteroides vulgatus strain: DSM1447 for biotransformation under anaerobic condition. The drug concentrations were measured over 6 timepoints collected between 0 and 12 hours of incubation by liquid-chromatography-coupled mass spectrometry (LC–MS); parameters: dose 5 uM, timepoint 0, 1.5, 3, 6, 9, 12 hours; conditions: phocaeicola vulgatus, 5 µM
[5] = as §1, with “the gut metagenome community of A-06 with ENA study accession number: PRJEB31790” for “Streptococcus sanguinis strain: DSM20567”, “7” for “6”; parameters: dose 5 uM, timepoint 0, 0.75, 1.5, 3, 6, 9, 12 hours; conditions: 5 µM
[6] = The drug is tested on Actinomyces naeslundi strain: DSM43013 for biotransformation under anaerobic condition. The drug concentrations were measured over 6 timepoints collected between 0 and 12 hours of incubation by liquid-chromatography-coupled mass spectrometry (LC–MS); parameters: dose 5 uM, timepoint 0, 1.5, 3, 6, 9, 12 hours; conditions: actinomyces naeslundii, 5 µM
[7] = The drug is tested on Bifidobacterium longum strain: DSM20088 for biotransformation under microaerobic condition. The drug concentrations were measured over 6 timepoints collected between 0 and 12 hours of incubation by liquid-chromatography-coupled mass spectrometry (LC–MS); parameters: dose 5 uM, timepoint 0, 1.5, 3, 6, 9, 12 hours; conditions: 5 µM
[8] = as §1, with “the gut metagenome community of A-03 with ENA study accession number: PRJEB31790” for “Streptococcus sanguinis strain: DSM20567”, “7” for “6”; parameters: dose 5 uM, timepoint 0, 0.75, 1.5, 3, 6, 9, 12 hours; conditions: 5 µM
[9] = as §1, with “the gut metagenome community of T-04 with ENA study accession number: PRJEB31790” for “Streptococcus sanguinis strain: DSM20567”, “7” for “6”; parameters: dose 5 uM, timepoint 0, 0.75, 1.5, 3, 6, 9, 12 hours; conditions: 5 µM
[10] = The drug is tested on Bacteroides ovatus strain: ATCC 8483 for biotransformation under anaerobic condition. The drug concentrations were measured over 6 timepoints collected between 0 and 12 hours of incubation by liquid-chromatography-coupled mass spectrometry (LC–MS); parameters: dose 5 uM, timepoint 0, 1.5, 3, 6, 9, 12 hours; conditions: 5 µM
[11] = The drug is tested on Gemella haemolysans strain: DSM107751 for biotransformation under microaerobic condition. The drug concentrations were measured over 6 timepoints collected between 0 and 12 hours of incubation by liquid-chromatography-coupled mass spectrometry (LC–MS); parameters: dose 5 uM, timepoint 0, 1.5, 3, 6, 9, 12 hours; conditions: 5 µM
[12] = The drug is tested on Clostridium bolteae strain: DSM15670 for biotransformation under anaerobic condition. The drug concentrations were measured over 6 timepoints collected between 0 and 12 hours of incubation by liquid-chromatography-coupled mass spectrometry (LC–MS); parameters: dose 5 uM, timepoint 0, 1.5, 3, 6, 9, 12 hours; conditions: enterocloster bolteae, 5 µM
[13] = The drug is tested on Lactobacillus fermentum strain: DSM20052 for biotransformation under microaerobic condition. The drug concentrations were measured over 6 timepoints collected between 0 and 12 hours of incubation by liquid-chromatography-coupled mass spectrometry (LC–MS); parameters: dose 5 uM, timepoint 0, 1.5, 3, 6, 9, 12 hours; conditions: limosilactobacillus fermentum, 5 µM
[14] = as §2, with “the gut metagenome community of P-04 with ENA study accession number: PRJEB31790” for “Odoribacter splanchnicus strain: DSM20712”, “7” for “6”; parameters: dose 5 uM, timepoint 0, 0.75, 1.5, 3, 6, 9, 12 hours; conditions: 5 µM
[15] = as §2, with “the gut metagenome community of T-04 with ENA study accession number: PRJEB31790” for “Odoribacter splanchnicus strain: DSM20712”, “7” for “6”; parameters: dose 5 uM, timepoint 0, 0.75, 1.5, 3, 6, 9, 12 hours; conditions: 5 µM
[16] = as §2, with “the gut metagenome community of T-02 with ENA study accession number: PRJEB31790” for “Odoribacter splanchnicus strain: DSM20712”, “7” for “6”; parameters: dose 5 uM, timepoint 0, 0.75, 1.5, 3, 6, 9, 12 hours; conditions: 5 µM
[17] = The drug is tested on Capnocytophaga ochracea strain: DSM7271 for biotransformation under anaerobic condition. The drug concentrations were measured over 6 timepoints collected between 0 and 12 hours of incubation by liquid-chromatography-coupled mass spectrometry (LC–MS); parameters: dose 5 uM, timepoint 0, 1.5, 3, 6, 9, 12 hours; conditions: 5 µM
[18] = as §1, with “the gut metagenome community of A-01 with ENA study accession number: PRJEB31790” for “Streptococcus sanguinis strain: DSM20567”, “7” for “6”; parameters: dose 5 uM, timepoint 0, 0.75, 1.5, 3, 6, 9, 12 hours; conditions: 5 µM
[19] = as §2, with “the gut metagenome community of A-06 with ENA study accession number: PRJEB31790” for “Odoribacter splanchnicus strain: DSM20712”, “7” for “6”; parameters: dose 5 uM, timepoint 0, 0.75, 1.5, 3, 6, 9, 12 hours; conditions: 5 µM
[20] = as §1, with “the gut metagenome community of T-01 with ENA study accession number: PRJEB31790” for “Streptococcus sanguinis strain: DSM20567”, “7” for “6”; parameters: dose 5 uM, timepoint 0, 0.75, 1.5, 3, 6, 9, 12 hours; conditions: 5 µM
[21] = as §2, with “the gut metagenome community of T-03 with ENA study accession number: PRJEB31790” for “Odoribacter splanchnicus strain: DSM20712”, “7” for “6”; parameters: dose 5 uM, timepoint 0, 0.75, 1.5, 3, 6, 9, 12 hours; conditions: 5 µM
[22] = The drug is tested on Bifidobacterium adolescentis strain: DSM20083 for biotransformation under anaerobic condition. The drug concentrations were measured over 6 timepoints collected between 0 and 12 hours of incubation by liquid-chromatography-coupled mass spectrometry (LC–MS); parameters: dose 5 uM, timepoint 0, 1.5, 3, 6, 9, 12 hours; conditions: 5 µM
[23] = The drug is tested on Parabacteroides merdae strain: DSM19495 for biotransformation under anaerobic condition. The drug concentrations were measured over 6 timepoints collected between 0 and 12 hours of incubation by liquid-chromatography-coupled mass spectrometry (LC–MS); parameters: dose 5 uM, timepoint 0, 1.5, 3, 6, 9, 12 hours; conditions: 5 µM
[24] = The drug is tested on Gemella morbillorum strain: DSM20572 for biotransformation under anaerobic condition. The drug concentrations were measured over 6 timepoints collected between 0 and 12 hours of incubation by liquid-chromatography-coupled mass spectrometry (LC–MS); parameters: dose 5 uM, timepoint 0, 1.5, 3, 6, 9, 12 hours; conditions: 5 µM
[25] = The drug is tested on Eubacterium rectale strain: DSM17629 for biotransformation under anaerobic condition. The drug concentrations were measured over 6 timepoints collected between 0 and 12 hours of incubation by liquid-chromatography-coupled mass spectrometry (LC–MS); parameters: dose 5 uM, timepoint 0, 1.5, 3, 6, 9, 12 hours; conditions: agathobacter rectalis, 5 µM
[26] = The drug is tested on Streptococcus anginosus strain: DSM20563 for biotransformation under anaerobic condition. The drug concentrations were measured over 6 timepoints collected between 0 and 12 hours of incubation by liquid-chromatography-coupled mass spectrometry (LC–MS); parameters: dose 5 uM, timepoint 0, 1.5, 3, 6, 9, 12 hours; conditions: 5 µM
[27] = as §2, with “the gut metagenome community of P-03 with ENA study accession number: PRJEB31790” for “Odoribacter splanchnicus strain: DSM20712”, “7” for “6”; parameters: dose 5 uM, timepoint 0, 0.75, 1.5, 3, 6, 9, 12 hours; conditions: 5 µM
[28] = The drug is tested on Bacteroides xylanisolvens strain: HM 722 for biotransformation under anaerobic condition. The drug concentrations were measured over 6 timepoints collected between 0 and 12 hours of incubation by liquid-chromatography-coupled mass spectrometry (LC–MS); parameters: dose 5 uM, timepoint 0, 1.5, 3, 6, 9, 12 hours; conditions: 5 µM
[29] = The drug is tested on Actinomyces naeslundi strain: DSM43013 for biotransformation under microaerobic condition. The drug concentrations were measured over 6 timepoints collected between 0 and 12 hours of incubation by liquid-chromatography-coupled mass spectrometry (LC–MS); parameters: dose 5 uM, timepoint 0, 1.5, 3, 6, 9, 12 hours; conditions: actinomyces naeslundii, 5 µM
[30] = as §1, with “the gut metagenome community of A-02 with ENA study accession number: PRJEB31790” for “Streptococcus sanguinis strain: DSM20567”, “7” for “6”; parameters: dose 5 uM, timepoint 0, 0.75, 1.5, 3, 6, 9, 12 hours; conditions: 5 µM

Row | Bacterial Biotransformation [1] | Bacterial Biotransformation [2] | Bacterial Biotransformation [3] | Bacterial Biotransformation [4] | Bacterial Biotransformation [5] | Bacterial Biotransformation [6] | Bacterial Biotransformation [7] | Bacterial Biotransformation [8] | Bacterial Biotransformation [9] | Bacterial Biotransformation [10] | Bacterial Biotransformation [12] | Bacterial Biotransformation [13] | Bacterial Biotransformation [14] | Bacterial Biotransformation [15] | Bacterial Biotransformation [16] | Bacterial Biotransformation [17] | Bacterial Biotransformation [18] | Bacterial Biotransformation [19] | Bacterial Biotransformation [20] | SMILES | Bacterial Biotransformation [11] | also measured
1 | Compound metabolized | Compound metabolized | Compound NOT metabolized | Compound NOT metabolized | Compound metabolized | Compound metabolized | Compound NOT metabolized | Compound metabolized | Compound metabolized | Compound metabolized | Compound NOT metabolized | Compound metabolized | Compound metabolized | Compound metabolized | Compound metabolized | Compound NOT metabolized | Compound metabolized | Compound metabolized | Compound metabolized | COc1c(C)c2c(c(O)c1C/C=C(\C)CCC(=O)OCCN1CCOCC1)C(=O)OC2 [MYCOPHENOLATE MOFETIL] | Compound metabolized | Bacterial Biotransformation [21]: Compound metabolized; Bacterial Biotransformation [22]: Compound NOT metabolized; Bacterial Biotransformation [23]: Compound metabolized; Bacterial Biotransformation [24]: Compound metabolized; Bacterial Biotransformation [25]: Compound NOT metabolized; Bacterial Biotransformation [26]: Compound metabolized; Bacterial Biotransformation [27]: Compound metabolized; Bacterial Biotransformation [28]: Compound metabolized; Bacterial Biotransformation [29]: Compound NOT metabolized; Bacterial Biotransformation [30]: Compound metabolized
2 | Compound NOT metabolized | Compound NOT metabolized | Compound NOT metabolized | Compound metabolized | Compound metabolized | Compound NOT metabolized | Compound metabolized | Compound metabolized | Compound NOT metabolized | Compound metabolized | Compound NOT metabolized | Compound NOT metabolized | Compound NOT metabolized | Compound NOT metabolized | Compound NOT metabolized | Compound NOT metabolized | Compound NOT metabolized | Compound metabolized | Compound NOT metabolized | Cn1cnc([N+](=O)[O-])c1Sc1ncnc2nc[nH]c12 [AZATHIOPRINE] | Compound NOT metabolized | Bacterial Biotransformation [21]: Compound NOT metabolized; Bacterial Biotransformation [22]: Compound metabolized; Bacterial Biotransformation [23]: Compound metabolized; Bacterial Biotransformation [24]: Compound NOT metabolized; Bacterial Biotransformation [25]: Compound metabolized; Bacterial Biotransformation [26]: Compound metabolized; Bacterial Biotransformation [27]: Compound NOT metabolized; Bacterial Biotransformation [28]: Compound metabolized; Bacterial Biotransformation [29]: Compound NOT metabolized; Bacterial Biotransformation [30]: Compound metabolized
3 | Compound NOT metabolized | Compound metabolized | Compound NOT metabolized | Compound NOT metabolized | Compound metabolized | Compound NOT metabolized | Compound NOT metabolized | Compound metabolized | Compound NOT metabolized | Compound NOT metabolized | Compound metabolized | Compound NOT metabolized | Compound NOT metabolized | Compound NOT metabolized | Compound metabolized | Compound NOT metabolized | Compound metabolized | Compound metabolized | Compound NOT metabolized | CO[C@H]1C[C@@H]2CC[C@@H](C)[C@@](O)(O2)C(=O)C(=O)N2CCCC[C@H]2C(=O)O[C@H]([C@H](C)C[C@@H]2CC[C@@H](OCCO)[C@H](OC)C2)CC(=O)[C@H](C)/C=C(\C)[C@@H](O)[C@@H](OC)C(=O)[C@H](C)C[C@H](C)/C=C/C=C/C=C/1C [EVEROLIMUS] | Compound NOT metabolized | Bacterial Biotransformation [21]: Compound NOT metabolized; Bacterial Biotransformation [22]: Compound NOT metabolized; Bacterial Biotransformation [23]: Compound NOT metabolized; Bacterial Biotransformation [24]: Compound NOT metabolized; Bacterial Biotransformation [25]: Compound NOT metabolized; Bacterial Biotransformation [26]: Compound NOT metabolized; Bacterial Biotransformation [27]: Compound NOT metabolized; Bacterial Biotransformation [28]: Compound NOT metabolized; Bacterial Biotransformation [29]: Compound NOT metabolized; Bacterial Biotransformation [30]: Compound metabolized
